Converted amounts (≈) assume the structure as drawn. Read-outs that look alike come from different tables or passages of the source.
Key:
[1] = solubility assessment of micronized tolcapone in buffers (HPLC assay and visual observation); type: physicochemical; settings: for solubility at 1 h / solubility at 2 h: buffer, thermodynamic from solid
Description: Two aliquots of each sample were taken at 1 and 2 hour time points. One aliquot was used for Assay and Related Substances analysis by reverse phase HPLC and the other aliquot was used to obtain microscopic images using 5.5× magnification, polarised and non-polarised light. In addition, representative photograph of each n=1 sample at 1 hour time point were taken for information. pH of each sample was measured at 2 hour time point.

[2] = safety evaluation in the Phase I study; type: in vivo, human; settings: single oral doses, healthy subjects
Text: Treatment-emergent adverse events (TEAEs), serious adverse events (SAEs), vital signs, ECG measurements (triplicate), physical examination, standard laboratory evaluations.

[3] = test system: TTR; settings: cited from earlier work

In the case of Cc1ccc(C(=O)c2cc(O)c(O)c([N+](=O)[O-])c2)cc1 [tolcapone], the “solubility (in words)” value ([1]; acidic conditions) is reported as “poorly soluble”, the “solubility (in words)” value ([1]; at about pH 6.8) is reported as “improved solubility” and the solubility at 1 h ([1]; pH 2, aqueous buffer, pH 2.0, 1 Hour, replicates N=1, N=2, read-out: Assay (solubility by HPLC)) is reported as 23 µg/mL (≈ 84.2 µM). It also gave a solubility at 1 h ([1]; pH 2, aqueous buffer, pH 2.0, 1 Hour, read-out: Mean Assay (solubility by HPLC)) of 20 µg/mL (≈ 73.2 µM), a solubility at 2 h ([1]; pH 2, aqueous buffer, pH 2.0, 2 Hour, replicates N=1, N=2, read-out: Assay (solubility by HPLC)) of 20 µg/mL (≈ 73.2 µM) and a solubility at 2 h ([1]; pH 2, aqueous buffer, pH 2.0, 2 Hour, read-out: Mean Assay (solubility by HPLC)) of 21 µg/mL (≈ 76.9 µM). The solubility at 1 h ([1]; pH 4.5, aqueous buffer, pH 4.5, 1 Hour, replicates N=1, N=2, read-out: Assay (solubility by HPLC)) was 45 µg/mL (≈ 165 µM), the solubility at 1 h ([1]; pH 4.5, aqueous buffer, pH 4.5, 1 Hour, read-out: Mean Assay (solubility by HPLC)) was 45 µg/mL (≈ 165 µM) and the solubility at 2 h ([1]; pH 4.5, aqueous buffer, pH 4.5, 2 Hour, replicates N=1, N=2, read-out: Assay (solubility by HPLC)) was 52 µg/mL (≈ 190 µM). For the same compound, the solubility at 2 h ([1]; pH 4.5, aqueous buffer, pH 4.5, 2 Hour, read-out: Mean Assay (solubility by HPLC)) was 51 µg/mL (≈ 187 µM), the solubility at 1 h ([1]; pH 5.5, aqueous buffer, pH 5.5, 1 Hour, replicates N=1, N=2, read-out: Assay (solubility by HPLC)) was 258 µg/mL (≈ 944 µM) and the solubility at 1 h ([1]; pH 5.5, aqueous buffer, pH 5.5, 1 Hour, read-out: Mean Assay (solubility by HPLC)) was 248 µg/mL (≈ 908 µM). It also gave a solubility at 2 h ([1]; pH 5.5, aqueous buffer, pH 5.5, 2 Hour, replicates N=1, N=2, read-out: Assay (solubility by HPLC)) of 283 µg/mL (≈ 1040 µM), a solubility at 2 h ([1]; pH 5.5, aqueous buffer, pH 5.5, 2 Hour, read-out: Mean Assay (solubility by HPLC)) of 275 µg/mL (≈ 1010 µM) and a solubility at 1 h ([1]; pH 6.8, aqueous buffer, pH 6.8, 1 Hour, replicates N=1, N=2, read-out: Assay (solubility by HPLC)) of 920 µg/mL (≈ 3370 µM). For the same compound, the solubility at 1 h ([1]; pH 6.8, aqueous buffer, pH 6.8, 1 Hour, read-out: Mean Assay (solubility by HPLC)) was 1280 µg/mL (≈ 4690 µM), the solubility at 2 h ([1]; pH 6.8, aqueous buffer, pH 6.8, 2 Hour, replicates N=1, N=2, read-out: Assay (solubility by HPLC)) was 905 µg/mL (≈ 3310 µM) and the solubility at 2 h ([1]; pH 6.8, aqueous buffer, pH 6.8, 2 Hour, read-out: Mean Assay (solubility by HPLC)) was 1030 µg/mL (≈ 3780 µM). It also gave a solubility at 1 h ([1]; pH 7.4, aqueous buffer, pH 7.4, 1 Hour, replicates N=1, N=2, read-out: Assay (solubility by HPLC)) of 473 µg/mL (≈ 1730 µM), a solubility at 1 h ([1]; pH 7.4, aqueous buffer, pH 7.4, 1 Hour, read-out: Mean Assay (solubility by HPLC)) of 463 µg/mL (≈ 1690 µM) and a solubility at 2 h ([1]; pH 7.4, aqueous buffer, pH 7.4, 2 Hour, replicates N=1, N=2, read-out: Assay (solubility by HPLC)) of 489 µg/mL (≈ 1790 µM). The solubility at 2 h ([1]; pH 7.4, aqueous buffer, pH 7.4, 2 Hour, read-out: Mean Assay (solubility by HPLC)) was 501 µg/mL (≈ 1830 µM), the “Assay (solubility by HPLC)” value ([1]; pH 2.0, 1 Hour, replicates N=1, N=2) was 18 µg/mL and the “Assay (solubility by HPLC)” value ([1]; pH 2.0, 2 Hour, replicates N=1, N=2) was 23 µg/mL. For the same compound, the “Assay (solubility by HPLC)” value ([1]; pH 4.5, 2 Hour, replicates N=1, N=2) was 51 µg/mL, the “Assay (solubility by HPLC)” value ([1]; pH 5.5, 1 Hour, replicates N=1, N=2) was 237 µg/mL and the “Assay (solubility by HPLC)” value ([1]; pH 5.5, 2 Hour, replicates N=1, N=2) was 267 µg/mL. The “Assay (solubility by HPLC)” value ([1]; pH 6.8, 1 Hour, replicates N=1, N=2) was 1644 µg/mL, the “Assay (solubility by HPLC)” value ([1]; pH 6.8, 2 Hour, replicates N=1, N=2) was 1163 µg/mL and the “Assay (solubility by HPLC)” value ([1]; pH 7.4, 1 Hour, replicates N=1, N=2) was 452 µg/mL. The “Assay (solubility by HPLC)” value ([1]; pH 7.4, 2 Hour, replicates N=1, N=2) was 513 µg/mL, the safety and tolerability [2] was “safe and well tolerated” and the “overall mean increase in plasma TTR tetramer concentration” value ([3]; 100 mg three times daily 14 days then 200 mg three times daily 14 days, oral, hATTR-leptomeningeal patients, plasma) was 55%. For the same compound, the “mean decrease of monomeric TTR concentration in CSF” value ([3]; same regimen, CSF, measured under semi-denaturing conditions) was 48%.

— patent publication US20260124146A1, “MODIFIED RELEASE TOLCAPONE FORMULATIONS” (Corino Therapeutics, Inc., priority 2022, published 2026)
